Assay [1] has as its target SARM1 TIR (Homo sapiens (Human), UniProt Q6SZW1). Put plainly: SARM1 TIR-based assay (bacterially expressed, tagged SARM1 TIR fragment on beads). It is filed as biochemical. To be noted: for Inhibitor: inhibitor of SARM1 TIR NAD cleavage activity; for Substrate: substrate of SARM1 TIR NAD cleavage activity. An excerpt: The present Example describes a SARM1 TIR-based Assay. This assay is similar to the assay described in Example 1, but allows for the identification and/or characterization of compounds that directly interact with the TIR domain, whereas the assay described in Example 1 can also identify compounds that disrupt SAM domain interactions. This assay makes use of the bacterial expression of a tagged version of the SARM1 TIR fragment that can be affinity purified. Displaying this artificial SARM1 TIR domain on a solid surface (i.e. affinity beads) generates an active NAD+ cleavage enzyme.
The TIR domain of SARM1 was tagged with a tandem STREP-TAG® at the N-terminus, and a polyhistidine tag at the C-terminus, and was cloned into a pET30a+ plasmid. The construct was then transformed into SHuffle® T7 Express Competent E. coli (New England BioLabs, Ipswich, MA) and single colonies were grown overnight. The next day, cultures were diluted in LB media, grown at 30° C. until they reached A600=0.4-0.8, when IPTG (0.5 mM final concentration) was added. The bacteria were grown for an additional 4 h, pelleted by centrifugation, washed with PBS and stored at −80° C. For protein purification, the frozen bacterial pellet was thawed on ice, resuspended in binding buffer (without protease inhibitors) and incubated with 100 μg/mL lysozyme for 15 min on ice. Protease inhibitor cocktail was then added and the cells were lysed by sonication.
The SARM1 TIR protein was first purified by Strep Tag affinity methods where bacterial lysates were incubated with […] (STREP-TACTIN®, IBA GmBH, Gottingen Germany) type 3 XT beads suspension (IBA Lifesciences) for 30 min. The beads were then washed three times with binding buffer, and bound proteins were eluted from MagStrep type 3 XT beads with 22.5 mM biotin for 25 min. Supernatant containing the eluted protein was separated from MagStrep beads, and incubated with 10 μL Co2+ DYNABEAD® (ThermoFisher Scientific, Waltham, MA) suspension for 30 min to bind SARM1-TIR proteins via the His tag. The beads were then washed at least two times with binding buffer and resuspended in 100 μL of binding buffer for NADase assay.
Ten microliters of purified SARM1-TIR laden beads were incubated with 5 μM NAD+ in reaction buffer (92.4 mM NaCl and 0.64×PBS). Reactions were carried out at 25° C. for the indicated amount of time and stopped by addition of 1M of perchloric acid (HClO4) and placing the tube on ice. NAD+ metabolites were extracted using HClO4/K2CO3 method and quantified by HPLC (see metabolite measurement below). For LC-MS/MS analysis, the extraction was performed using 50% methanol in distilled water and chloroform (see LC-MS/MS metabolite measurement below). […] Select potent inhibitors (622608, 622689) identified from SARM1 SAM-TIR lysate screen were added to the reaction at 5 μM. NAD normalized to control at 0 min.
Metabolites were isolated from enzyme reaction mixture by extracting with 1M HClO4, then neutralized with 3M K2CO3, and followed by separation by centrifugation. The supernatant (90 μL) containing the extracted metabolites was mixed with 0.5M Potassium Phosphate buffer (10 μL) and metabolites were analyzed by HPLC (Nexera X2) with KINETEX® (100×3 mm, 2.6 μm; PHENOMENEX®) column and metabolites are monitored with absorbance at 254 nm. Internal standards for NAD+, Nicotinamide (Nam), ADP Ribose (ADPR) were used to generate standard curves for quantification of the respective compounds. The levels for each compound in each experimental sample was normalized to the 0 min time point that was analyzed concurrently.
These analogs were tested using an assay that makes use of a bacterially-expressed tagged version of the SARM1 TIR fragment, as described in Example 2. Displaying this artificial SARM1 TIR domain on a solid surface (i.e. affinity beads) generates an active NAD+ cleavage enzyme.

Assay [2] has as its target human SARM1 SAM-TIR (Homo sapiens (Human), UniProt Q6SZW1). Put plainly: biochemical. To be noted: for ADPR Production (%) / NAD Consumption (%): single point screening at 150 μM.
Description: When these NRK1-expressing cells are supplemented with NR, NAD+ levels are augmented and cell viability is enhanced to enable efficient production and purification of the constitutively active human SARM1 SAM-TIR protein fragment. To express SARM1 SAM-TIR, the SARM1 N-terminal auto-inhibitory domain was deleted, keeping only the initiator Met. […] The fragment encoding the SARM1 SAM-TIR protein was cloned into the FCIV expression construct by standard methods to generate the FCIV-SST vector.
NRK1-HEK293T cells were seeded onto 150 cm^2 plates at 20×10^6 cells per plate in 25 mL growth medium comprised of 90% DMEM (Gibco 11965-084) and 10% FBS (Sigma F0926). The next day, cells were transfected by first premixing 15 ug FCIV-SST SST (SAM-TIR expression plasmid from Washington University) with 45 ul X-tremeGENE 9 DNA Transfection Reagent (Roche product #06365787001) and 750 ul OptiMEM (Gibco 31985062) and then adding this mix directly to the cells. […] Forty-eight hours after transfection, cells were harvested, pelleted by centrifugation at 1,000 rpm (Eppendorf Centrifuge 5804R, 15 Amp Version), and washed once with cold PBS (0.01 M phosphate buffered saline NaCl 0.138 M; KCl 0.0027 M; pH 7.4). The cells were resuspended in 0.5 ml PBS with protease inhibitors (Complete protease inhibitor cocktail, Roche product #11873580001). Cell lysates were prepared by sonication (Misonix Microson Ultrasonic Cell Disruptor, output=3, 20 episodes of stroke). The lysates were centrifuged at 12,000×g for 10 min at 4° C. (Eppendorf Centrifuge 5415C) to remove cell debris and the aliquots of supernatant (containing SARM1 SAM-TIR protein) were stored at −80° C. for later use. Protein concentration was determined by the Bicinchoninic (BCA) method and used to normalize lysate concentrations.
Reaction mixtures were prepared on ice by mixing 10 ul of SARM1 SAM-TIR cell lysate (320 fold dilution of lysate 11-3-2016, or 80 fold lysate dilution for assessment of time dependence) in PBS (pH 7.4) with 5 ul of compound stock. Compounds were first dissolved DMSO at 10 mM (final stock concentration). A 10 point compound dilution curve was prepared first with a 20 ul to 40 ul serial dilution in DMSO, followed by a 10 fold dilution (12 ul+108 ul) in PBS.
Assay [3] addresses SARM1 SAM-TIR lysate (Homo sapiens (Human), UniProt Q6SZW1). Description: HPLC-based SARM1 SAM-TIR NADase assay 1 (inhibitor screen, NAD+/ADPR ratio). It is filed as biochemical. As to the method: NRK1-HEK293T cells were seeded onto 150 cm^2 plates at 20×10^6 cells per plate. The next day, the cells were transfected with 15 μg FCIV-SST (SAM-TIR expression plasmid, SEQ ID NO: 9) using X-[…]™ 9 DNA Transfection Reagent (Roche product #06365787001). The cultures were supplemented with 1 mM NR at time of transfection to minimize toxicity from SAM-TIR overexpression. Forty-eight hours after transfection, cells were harvested, pelleted by centrifugation at 1,000 rpm (Sorvall ST 16R centrifuge, Thermo Fisher), and washed once with cold PBS (0.01 M phosphate buffered saline NaCl 0.138 M; KCl 0.0027 M; pH 7.4). The cells were resuspended in PBS with protease inhibitors (cOmplete™ protease inhibitor cocktail, Roche product #11873580001) and cell lysates were prepared by sonication (Branson Sonifer 450, output=3, 20 episodes of stroke). […] Protein concentration was determined by the Bicinchoninic (BCA) method and used to normalize lysate concentrations. […]
Reaction mixtures were prepared on ice by mixing SARM1 SAM-TIR cell lysate (0.14 μg total protein), compound stock (5 μM final concentration), and PBS (pH 7.4) to a final volume of 12 μl. […] The supernatant was transferred and analyzed by HPLC (Shimadzu Nexera X2) with KINETEX® (100×3 mm, 2.6 μm; PHENOMENEX®) column and metabolites were monitored with absorbance at 254 nm.
To identify inhibitors of SARM1 NADase activity, the levels of NAD+ and the enzymatic cleavage product ADPR in the reactions were quantified by HPLC. From these values, the NAD+/ADPR ratio for each compound was calculated and the ratio used as a measure of NAD+ cleavage activity (Note: there is a small residual but detectable ADPR signal in control samples derived from the HEK293 lysate). […]
The NAD+/ADPR ratio was used to determine the NAD+ cleavage activity of the SARM1 SAM-TIR lysate using the HPLC based assay 1. It will be appreciated that any precise, quantitative method of measuring NAD+ levels could be used for the detection of SARM1 NADase activity. […]

Setting [4] is: 10 point curve 0.01-250 uM, read-out: IC50 (μM, ADPR Production).
[5] abbreviates: 10 point curve 0.01-250 uM, read-out: IC50 (μM, NAD Consumption).
The mark [6] stands for this setting: NAD consumption, 7 point curve 0-about 6 uM, read-out: IC50.

Where two headings read alike, the source gives them in different places.

SARM1 SAM-TIR lysate, sequence (Q6SZW1 other isoform, or with tags, fused parts or gaps): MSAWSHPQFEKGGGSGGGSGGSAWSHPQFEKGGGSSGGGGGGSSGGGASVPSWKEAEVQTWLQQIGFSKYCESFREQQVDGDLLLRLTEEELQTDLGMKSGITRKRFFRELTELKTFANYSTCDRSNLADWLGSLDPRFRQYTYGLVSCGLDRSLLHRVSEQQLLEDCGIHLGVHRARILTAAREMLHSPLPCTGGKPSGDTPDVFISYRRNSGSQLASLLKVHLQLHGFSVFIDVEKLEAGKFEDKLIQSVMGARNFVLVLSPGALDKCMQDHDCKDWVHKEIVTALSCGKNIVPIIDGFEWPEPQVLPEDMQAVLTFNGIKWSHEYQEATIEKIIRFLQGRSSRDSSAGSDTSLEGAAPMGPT
SARM1 TIR, sequence (Q6SZW1 other isoform, or with tags, fused parts or gaps): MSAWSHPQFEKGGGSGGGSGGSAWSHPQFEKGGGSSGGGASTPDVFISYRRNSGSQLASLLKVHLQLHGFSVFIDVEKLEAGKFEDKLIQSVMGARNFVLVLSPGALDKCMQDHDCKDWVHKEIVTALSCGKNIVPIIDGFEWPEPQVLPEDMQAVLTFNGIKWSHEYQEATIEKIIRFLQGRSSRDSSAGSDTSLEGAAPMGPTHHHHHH

On to `CC(=O)c1cccnc1` [3-acetylpyridine], for which, in assay [1], the Inhibitor result is listed as “No” and the Substrate result is listed as “No”.

For `NC(=O)c1ccc(N)nc1` [6-aminonicotinamide], in assay [1], the Inhibitor result was “No” and the Substrate result was “No”.

Take `NC(=O)c1ccccc1` [Benzamide]: in assay [1], the Inhibitor entry is recorded as “No” and the Substrate result was “No”.

For `CN(C)c1nc(=Nc2cccc(Cl)c2)ss1` [Compound 622689], the “inhibition of NADase activity of purified SARM1 TIR” value in assay [1] (compound at 5 μM, 5 μM NAD+) is on record as “inhibit NADase activity of purified SARM1 TIR”.

On to `NC(=O)C1CCCc2c1[nH]c1ccc(Cl)cc21` (stereo not shown) [Ex-527], for which the Substrate result in assay [1] was “No”.

A word on the IC50: it is the concentration that gives 50% inhibition. Turning to `Cc1c(OCC(F)(F)F)ccnc1C[S+]([O-])c1nc2ccccc2[nH]1` (stereo not shown) [I^A-2, lansoprazole], the IC50 in assay [2] (setting [4]) was 3.3 µM; in assay [2] (setting [5]) it was 3.5 µM.

What is called inhibition is the relative decrease from the control value, in per cent. As to `COCCCOc1ccnc(C[S+]([O-])c2nc3ccccc3[nH]2)c1C` (stereo not shown) [I^A-6, rabeprazole], the inhibition at 10 µM in assay [3] (at 10 μM, 5 μM NAD) turned out to be 95%. In addition, in assay [3] (at 30 μM, 5 μM NAD), the inhibition at 30 µM is 98.8%. For the same compound, the IC50 in assay [2] (setting [4]) is 3.2 µM; in assay [2] (setting [5]) it was 3.3 µM.

As for `COc1ccc2[nH]c([S+]([O-])Cc3ncc(C)c(OC)c3C)nc2n1` (stereo not shown) [I^A-8, tenatoprazole], the “identified as SARM1 NADase inhibitor in initial screening” value in assay [3] is given as “SARM1 NADase inhibitors”. For the same compound, the IC50 in assay [2] (setting [4]) is 8.7 µM. The IC50 in assay [2] (setting [5]) was 7.4 µM. In addition, in assay [2], the “ADPR Production (%)” value is “C (“C” indicating <50%)” and the “NAD Consumption (%)” value is listed as “B (“B” indicating between 50%-75%)”.

Consider `Cc1c(OCC(F)(F)F)ccnc1CSc1nc2ccccc2[nH]1` [I^A-9, lansoprazole sulfide], for which, in assay [2], the “ADPR Production (%)” value is “A (“A” indicating >75%)” and the “NAD Consumption (%)” value is reported as “A (“A” indicating >75%)”.

With `Cc1c(OCC(F)(F)F)ccnc1CS(=O)(=O)c1nc2ccccc2[nH]1` [I^A-10, lansoprazole sulfone], in assay [2], the “ADPR Production (%)” value is on record as “A (“A” indicating >75%)” and the “NAD Consumption (%)” value is on record as “A (“A” indicating >75%)”.

For the compound `COc1ccc2c(c1)nc([S+]([O-])Cc1ncc(C)c(OC)c1C)n2C` (stereo not shown) [I^A-11, N-methyl omeprazole], in assay [2], the “ADPR Production (%)” value was “A (“A” indicating >75%)” and the “NAD Consumption (%)” value is given as “A (“A” indicating >75%)”.

Regarding `COc1ccc2[n-]c([S+]([O-])Cc3ncc(C)c(OC)c3C)nc2c1.[Na+]` (stereo not shown) [I^A-13, sodium esomeprazole], in assay [2], the “ADPR Production (%)” value was “B (“B” indicating between 50%-75%)” and the “NAD Consumption (%)” value is on record as “A (“A” indicating >75%)”.

For the compound `CN(C)c1n/c(=N/c2cccc(Cl)c2)ss1` [I^B-1], in assay [2] (setting [6]), the IC50 was roughly 0.7 µM.

With `CN(C)c1n/c(=N/Cc2ccco2)ss1` [I^B-2], the IC50 in assay [2] (setting [6]) is roughly 0.15 µM.

As for `O=Cc1cccnc1` [Nicotinaldehyde], in assay [1], the Inhibitor result is reported as “No” and the Substrate result is recorded as “No”.

Take `NC(=O)c1ccc[n+]([C@@H]2O[C@H](COP(=O)([O-])OP(=O)(O)OC[C@H]3O[C@@H](n4cnc5c4ncn4ccnc54)[C@H](O)[C@@H]3O)[C@@H](O)[C@H]2O)c1` [Nicotinamide 1, N6-ethenoadenine dinucleotide]: the Substrate result in assay [1] was “No”.

With `NC(=O)c1ccc[n+](C2OC(COP(=O)(O)OP(=O)(O)OCC3OC(n4cnc5c(=O)[nH]cnc54)C(O)C3O)C(O)C2O)c1` (stereo not shown) [Nicotinamide Hypoxanthine dinucleotide], in assay [1], the Inhibitor entry was “inhibitor and Yes”; the Substrate result is “substrate and Yes”.

With `NC(=O)C1=CN([C@@H]2O[C@H](COP(=O)(O)OP(=O)(O)OC[C@H]3O[C@@H](n4cnc5c(N)ncnc54)[C@H](OP(=O)(O)O)[C@@H]3O)[C@@H](O)[C@H]2O)C=CC1` [Nicotinamide adenine dinucleotide 2′-phosphate, reduced], in assay [1], the Inhibitor entry is “Unclear”.

`NC(=S)c1cccnc1` [Thionicotinamide]: in assay [1], the Inhibitor entry was “No” and the Substrate result is “No”.

The values above are taken from patent US11903935B2, “Inhibitors of SARM1 NADase activity and uses thereof” (Washington University, priority 2016, dated 2024).
